Test: Reaction rate of fluorescent probe SOSG with 1O2 generated by photosensitizer under light and magnetic field
Format: physicochemical
Settings: Ce6 and SOSG 10 μmol/L in water, 640 nm LED 5 mW·cm−2
Experimental: (1) The photosensitizer Rose Bengal (RB) (the purity >98%, available from Saen Chemical Technologies (Shanghai) Ltd. Co., branded as Energy Chemical) and singlet oxygen fluorescent probe (SOSG) are dissolved in water (SOSG available from ThermoFisher Scientific (China) Co., Ltd.). In the resulting solution, the photosensitizer and SOSG are both at a concentration of 10 μmol/L. In a magnetic field with certain strength, the solutions are exposed to a 561 nm LED lamp (light emitting diode) at a power of 5 mW·cm^−2 and tested for fluorescence spectra at 0, 15, 30, 45, 60, 90, 120 and 180 seconds of light exposure, respectively, resulting in emission intensity ([…]) versus time (t) curves. The above fluorescence spectroscopy test is performed at a magnetic field strength of 0, 10, 35, 85, 180, 300 mT, respectively (external magnetic field provided by a neodymium iron boron permanent magnet).
(2) The photosensitizer chlorin e6 (Ce6, Chlorin e6) (available from Saen Chemical Technologies (Shanghai) Ltd. Co., branded as Energy Chemical) and singlet oxygen fluorescent probe (SOSG) are dissolved in water, both with a concentration of 10 μmol/L in the resulting solutions. In a magnetic field with certain strength, the solutions are exposed to a 640 nm LED lamp (light emitting diode) at a power of 5 mW·cm^−2 and tested for fluorescence spectra at 0, 15, 30, 45, 60, 90, 120 and 180 seconds of light exposure, respectively, resulting in emission intensity ([…]) versus time (t) curves. The above fluorescence spectra are tested at a magnetic field strength of 0, 10, 30, 70, 150, 250 mT, respectively.
The external magnetic field is supplied by Neodymium Iron Boron Permanent Magnet. Fluorescence spectra are tested using Edinburg FLS980 Steady State Transient Fluorescence Spectrometer with a detector of PMT R928 and a light source of 450 W ozone-free xenon lamp with excitation wavelength of λex=488 nm.
Under irradiation conditions, photosensitizer is excited to produce singlet oxygen ^1O2, and fluorescent probe SOSG reacts with ^1O2 to give endoperoxide with green fluorescence emission characteristic, with emission wavelength of 525 nm under excitation wavelength conditions of 488 nm. The reaction has a reaction rate of r.
In the present invention, through application of light and a magnetic field, the magnetic field effects (MFEs) is quantified by mfeR, the change rate of the reaction rate r, mfeR=(rB−r0)/r0×100%, where r0 is the reaction rate at a magnetic field strength of 0 mT and rB is the reaction rate at a magnetic field strength of B mT. Where the reaction rate (r) is proportional to the slope of the tangent of a curve (first derivative of the curve) of the emission intensity (I525 nm) versus time (t). Under magnetic field strengths of 0, 10, 35, 85, 180, 300 mT and from the time of starting to illuminate and place in magnetic field (the time recorded as 0), the first derivative of the I525 nm−t curve is 1, 1.05, 1.09, 0.99, 1.12, 1.14 (normalized).

In the case of chlorin e6 [Ce6], the “first derivative of I525 nm−t curve at time 0 (normalized)” value (“first derivative … (normalized)” for short) (MF 0 mT) is reported as 1, the “first derivative … (normalized)” value (MF 10 mT) is reported as 1.09 and the “first derivative … (normalized)” value (MF 30 mT) is reported as 1.33. The “first derivative … (normalized)” value (MF 70 mT) was 1.23, the “first derivative … (normalized)” value (MF 150 mT) was 1.16 and the “first derivative … (normalized)” value (MF 250 mT) was 1.12.

Source: patent publication US20250041624A1, “METHOD FOR ENHANCING ACTIVITY OF PHOTOSENSITIZER BY MAGNETIC FIELD” (PEKING UNIVERSITY, priority 2021, published 2025)
